Reference: PubChem BioAssay (NCI)
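All cell lines were grown in 96-well plates and treated with compound for 48 hours. GI50 marks 50% less growth. At the TGI there is no net growth.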

Columns and labels:
Experiment in all cases: NCI tumour cell line growth inhibition, 48 h
[1] = tested on: 786-0 renal
[2] = tested on: A498 renal
[3] = tested on: A549 NSCLC
[4] = tested on: ACHN renal
[5] = tested on: BT-549 breast
[6] = tested on: CAKI-1 renal
[7] = tested on: CCRF-CEM leukemia
[8] = tested on: COLO 205 colon
[9] = tested on: DU-145 prostate
[10] = tested on: EKVX NSCLC
[11] = tested on: HCC-2998 colon
[12] = tested on: HCT-116 colon
[13] = tested on: HCT-15 colon
[14] = tested on: HL-60(TB) leukemia
[15] = tested on: HOP-62 NSCLC
[16] = tested on: HOP-92 NSCLC
[17] = tested on: HS 578T breast
[18] = tested on: HT29 colon
[19] = tested on: IGROV1 ovarian
[20] = tested on: K-562 leukemia
[21] = tested on: KM12 colon
[22] = tested on: LOX IMVI melanoma
[23] = tested on: M14 melanoma
[24] = tested on: MALME-3M melanoma
[25] = tested on: MCF7 breast
[26] = tested on: MDA-MB-231 breast
[27] = tested on: MDA-MB-435
[28] = tested on: MOLT-4 leukemia
[29] = tested on: NCI-H226 lung
[30] = tested on: NCI-H460 lung
[31] = tested on: NCI-H522 lung
[32] = tested on: NCI/ADR-RES ovarian
[33] = tested on: OVCAR-3 ovarian
[34] = tested on: OVCAR-4 ovarian
[35] = tested on: OVCAR-5 ovarian
[36] = tested on: OVCAR-8 ovarian
[37] = tested on: PC-3 prostate
[38] = tested on: RPMI-8226 leukemia
[39] = tested on: RXF 393 renal
[40] = tested on: SF-268 CNS
[41] = tested on: SF-295 CNS
[42] = tested on: SF-539 CNS
[43] = tested on: SK-MEL-2 melanoma
[44] = tested on: SK-MEL-28 melanoma
[45] = tested on: SK-MEL-5 melanoma
[46] = tested on: SK-OV-3 ovarian
[47] = tested on: SN12C renal
[48] = tested on: SNB-19 CNS
[49] = tested on: SNB-75 CNS
[50] = tested on: SR leukemia
[51] = tested on: SW-620 colon
[52] = tested on: T-47D breast
[53] = tested on: TK-10 renal
[54] = tested on: U251 CNS
[55] = tested on: UACC-257 melanoma
[56] = tested on: UACC-62 melanoma
[57] = tested on: UO-31 renal

`COCCNc1ccc2ncc(C#Cc3cncc(C(=O)Nc4ccc(CN5CCN(C)CC5)c(C(F)(F)F)c4)c3)n2n1` showed a GI50 [1] of 236 nM, a TGI [1] of 939 nM and a GI50 [2] of 221 nM. The TGI [2] was 474 nM, the GI50 [3] was 208 nM and the TGI [3] was 1120 nM. It also gave a GI50 [4] of 157 nM, a TGI [4] of 870 nM and a GI50 [5] of 434 nM. It also gave a TGI [5] of 1210 nM, a GI50 [6] of 113 nM and a TGI [6] of 327 nM. It also gave a GI50 [7] of 24.9 nM, a TGI [7] of 6680 nM and a GI50 [8] of 120 nM. It also gave a TGI [8] of 294 nM, a GI50 [9] of 251 nM and a TGI [9] of 1540 nM. For the same molecule, the GI50 [10] was 186 nM, the TGI [10] was 807 nM and the GI50 [11] was 315 nM. It also gave a TGI [11] of 1090 nM, a GI50 [12] of 80.4 nM and a TGI [12] of 387 nM. The GI50 [13] was 180 nM, the TGI [13] was 715 nM and the GI50 [14] was 134 nM. It also gave a TGI [14] of 566 nM, a GI50 [15] of 242 nM and a TGI [15] of 1370 nM. For the same molecule, the GI50 [16] was 50.3 nM, the TGI [16] was 229 nM and the GI50 [17] was 77.9 nM. For the same molecule, the TGI [17] was 452 nM, the GI50 [18] was 198 nM and the TGI [18] was 954 nM. For the same molecule, the GI50 [19] was 123 nM, the TGI [19] was 639 nM and the GI50 [20] was 9.89 nM. It also gave a TGI [20] of 540 nM, a GI50 [21] of 5 nM and a TGI [21] of 1200 nM. It also gave a GI50 [22] of 97.3 nM, a TGI [22] of 338 nM and a GI50 [23] of 125 nM. The TGI [23] was 408 nM, the GI50 [24] was 181 nM and the TGI [24] was 711 nM. The GI50 [25] was 139 nM, the TGI [25] was 933 nM and the GI50 [26] was 82.3 nM. It also gave a TGI [26] of 333 nM, a GI50 [27] of 142 nM and a TGI [27] of 843 nM. It also gave a GI50 [28] of 51.4 nM, a TGI [28] of 1510 nM and a GI50 [29] of 147 nM. It also gave a TGI [29] of 980 nM, a GI50 [30] of 123 nM and a TGI [30] of 621 nM. It also gave a GI50 [31] of 99.8 nM, a TGI [31] of 315 nM and a GI50 [32] of 1890 nM. For the same molecule, the TGI [32] was 50000 nM, the GI50 [33] was 232 nM and the TGI [33] was 1340 nM. It also gave a GI50 [34] of 352 nM, a TGI [34] of 2030 nM and a GI50 [35] of 234 nM. For the same molecule, the TGI [35] was 1400 nM, the GI50 [36] was 197 nM and the TGI [36] was 830 nM. For the same molecule, the GI50 [37] was 254 nM, the TGI [37] was 2130 nM and the GI50 [38] was 195 nM. For the same molecule, the TGI [38] was 719 nM, the GI50 [39] was 145 nM and the TGI [39] was 432 nM. It also gave a GI50 [40] of 156 nM, a TGI [40] of 737 nM and a GI50 [41] of 708 nM. It also gave a TGI [41] of 3330 nM, a GI50 [42] of 41.4 nM and a TGI [42] of 215 nM. It also gave a GI50 [43] of 97.8 nM, a TGI [43] of 273 nM and a GI50 [44] of 402 nM. The TGI [44] was 1300 nM, the GI50 [45] was 575 nM and the TGI [45] was 1240 nM. For the same molecule, the GI50 [46] was 426 nM, the TGI [46] was 1290 nM and the GI50 [47] was 88.8 nM. It also gave a TGI [47] of 766 nM, a GI50 [48] of 289 nM and a TGI [48] of 1820 nM. It also gave a GI50 [49] of 25.7 nM, a TGI [49] of 126 nM and a GI50 [50] of 78.3 nM. For the same molecule, the TGI [50] was 760 nM, the GI50 [51] was 83.1 nM and the TGI [51] was 257 nM. For the same molecule, the GI50 [52] was 325 nM, the TGI [52] was 1580 nM and the GI50 [53] was 232 nM. For the same molecule, the TGI [53] was 729 nM, the GI50 [54] was 265 nM and the TGI [54] was 984 nM. For the same molecule, the GI50 [55] was 692 nM, the TGI [55] was 2130 nM and the GI50 [56] was 284 nM. It also gave a TGI [56] of 832 nM, a GI50 [57] of 777 nM and a TGI [57] of 1990 nM.
